Conditions: Vibrating tube method

FC(F)=C(F)C(F)(F)F [hexafluoropropene]
Conditions	mass density [kg/m3]
353.12 K, 2589.9 kPa, Fluid (supercritical or subcritical phases)	239.58
353.12 K, 2605.1 kPa, Fluid (supercritical or subcritical phases)	243.48
353.12 K, 2619.7 kPa, Fluid (supercritical or subcritical phases)	247.37
353.12 K, 2635.2 kPa, Fluid (supercritical or subcritical phases)	251.52
353.12 K, 2649.7 kPa, Fluid (supercritical or subcritical phases)	255.58
353.12 K, 2670.4 kPa, Fluid (supercritical or subcritical phases)	261.98
353.12 K, 2690 kPa, Fluid (supercritical or subcritical phases)	268.46
353.12 K, 2702.3 kPa, Fluid (supercritical or subcritical phases)	272.91
353.12 K, 2710.7 kPa, Fluid (supercritical or subcritical phases)	275.88
353.12 K, 2718.3 kPa, Fluid (supercritical or subcritical phases)	278.85
353.12 K, 2725 kPa, Fluid (supercritical or subcritical phases)	281.55
353.12 K, 2731.2 kPa, Fluid (supercritical or subcritical phases)	284.3
353.12 K, 2737.4 kPa, Fluid (supercritical or subcritical phases)	286.74
353.12 K, 2744.8 kPa, Fluid (supercritical or subcritical phases)	290.14
353.12 K, 2751.1 kPa, Fluid (supercritical or subcritical phases)	293.08
353.12 K, 2757.6 kPa, Fluid (supercritical or subcritical phases)	296.25
353.12 K, 2764.5 kPa, Fluid (supercritical or subcritical phases)	299.88
353.12 K, 2771.7 kPa, Fluid (supercritical or subcritical phases)	303.81
353.13 K, 2798.4 kPa, Liquid	887.06
353.13 K, 2805.3 kPa, Liquid	888.96
353.13 K, 2812.6 kPa, Liquid	890.6
353.13 K, 2818.9 kPa, Liquid	891.84
353.13 K, 2825.7 kPa, Liquid	893.67
353.13 K, 2832.6 kPa, Liquid	894.71
353.13 K, 2839.4 kPa, Liquid	896.74
353.13 K, 2846 kPa, Liquid	898.09
353.13 K, 2852.6 kPa, Liquid	899.46
353.13 K, 2859.8 kPa, Liquid	900.81
353.13 K, 2866.7 kPa, Liquid	902.11
353.13 K, 2873.8 kPa, Liquid	903.63
353.13 K, 2881 kPa, Liquid	904.67
353.13 K, 2888.2 kPa, Liquid	906.06
353.13 K, 2908.5 kPa, Liquid	909.29
353.13 K, 2928.4 kPa, Liquid	912.84
353.13 K, 2948.2 kPa, Liquid	915.77
353.13 K, 2969.5 kPa, Liquid	918.7
353.13 K, 2989.9 kPa, Liquid	921.51
353.13 K, 3009.6 kPa, Liquid	924.14
353.13 K, 3030.5 kPa, Liquid	926.96
353.13 K, 3051.7 kPa, Liquid	929.82
353.13 K, 3072.6 kPa, Liquid	932.36
353.13 K, 3094.1 kPa, Liquid	935.03
353.13 K, 3116.1 kPa, Liquid	937.73
353.13 K, 3136.7 kPa, Liquid	940.03
353.13 K, 3159.1 kPa, Liquid	942.35
353.13 K, 3182.1 kPa, Liquid	944.69
353.13 K, 3205.5 kPa, Liquid	946.93
353.13 K, 3225.2 kPa, Liquid	948.79
353.13 K, 3246.7 kPa, Liquid	950.79
353.13 K, 3265.8 kPa, Liquid	952.67
353.13 K, 3286.3 kPa, Liquid	954.54
353.13 K, 3309.6 kPa, Liquid	956.7
353.13 K, 3330.5 kPa, Liquid	958.57
353.13 K, 3353 kPa, Liquid	960.43
353.13 K, 3369.2 kPa, Liquid	961.77
353.13 K, 3392.7 kPa, Liquid	963.71
353.13 K, 3399 kPa, Liquid	964.17
353.13 K, 3429.5 kPa, Liquid	966.86
353.13 K, 3457.9 kPa, Liquid	969.07
353.13 K, 3487.3 kPa, Liquid	971.26
353.13 K, 3521.2 kPa, Liquid	973.81
353.13 K, 3546.8 kPa, Liquid	975.65
353.13 K, 3574.3 kPa, Liquid	977.54
353.13 K, 3599.5 kPa, Liquid	979.42
353.13 K, 3626.9 kPa, Liquid	981.32
353.13 K, 3653.9 kPa, Liquid	982.94
353.13 K, 3680.4 kPa, Liquid	984.8
353.13 K, 3736 kPa, Liquid	988.5
353.13 K, 3763.9 kPa, Liquid	990.13
353.13 K, 3788.8 kPa, Liquid	991.7
353.13 K, 3815.8 kPa, Liquid	993.28
353.13 K, 3840.7 kPa, Liquid	994.81
353.13 K, 3865.5 kPa, Liquid	996.26
353.13 K, 3891.9 kPa, Liquid	997.74
353.13 K, 3918.8 kPa, Liquid	999.3
353.13 K, 3943.7 kPa, Liquid	1000.71
353.13 K, 3971.8 kPa, Liquid	1002.02
353.13 K, 3985.4 kPa, Liquid	1002.96
353.13 K, 4027.5 kPa, Liquid	1005.16
353.13 K, 4066.7 kPa, Liquid	1007.14
353.13 K, 4105.8 kPa, Liquid	1009.21
353.13 K, 4146.8 kPa, Liquid	1011.34
353.13 K, 4185.8 kPa, Liquid	1013.28
353.13 K, 4216 kPa, Liquid	1014.76
353.13 K, 4257.8 kPa, Liquid	1016.64
353.13 K, 4298.4 kPa, Liquid	1018.66
353.13 K, 4335.1 kPa, Liquid	1020.3
353.13 K, 4374.3 kPa, Liquid	1022.01
353.13 K, 4415.3 kPa, Liquid	1023.76
353.13 K, 4454.8 kPa, Liquid	1025.55
353.13 K, 4494.4 kPa, Liquid	1027.22
353.13 K, 4534 kPa, Liquid	1028.89
353.13 K, 4574.1 kPa, Liquid	1030.62
353.13 K, 4611.4 kPa, Liquid	1032.18
353.13 K, 4650.8 kPa, Liquid	1033.77
353.13 K, 4692 kPa, Liquid	1035.33
353.13 K, 4731.2 kPa, Liquid	1036.88
353.13 K, 4772.4 kPa, Liquid	1038.52
353.13 K, 4813.3 kPa, Liquid	1040.05
353.13 K, 4854.9 kPa, Liquid	1041.63
353.13 K, 4892.5 kPa, Liquid	1043.01
353.13 K, 4933.3 kPa, Liquid	1044.53
353.13 K, 4970.7 kPa, Liquid	1045.82
353.13 K, 5012.1 kPa, Liquid	1047.29
353.13 K, 5052.5 kPa, Liquid	1048.76
353.13 K, 5091.9 kPa, Liquid	1050.11
353.13 K, 5130 kPa, Liquid	1051.53
353.13 K, 5169.1 kPa, Liquid	1052.89
353.13 K, 5208.1 kPa, Liquid	1054.11
353.13 K, 5247 kPa, Liquid	1055.36
353.13 K, 5287.6 kPa, Liquid	1056.62
353.13 K, 5325.3 kPa, Liquid	1057.82
353.13 K, 5365.1 kPa, Liquid	1059.19
353.13 K, 5403.1 kPa, Liquid	1060.48
353.13 K, 5442.6 kPa, Liquid	1061.62
353.13 K, 5480.8 kPa, Liquid	1062.93
353.13 K, 5559.8 kPa, Liquid	1065.32
353.13 K, 5597.5 kPa, Liquid	1066.51
353.13 K, 5634.9 kPa, Liquid	1067.6
353.13 K, 5673 kPa, Liquid	1068.78
353.13 K, 5711.7 kPa, Liquid	1069.91
353.13 K, 5751 kPa, Liquid	1071.01
353.13 K, 5788.5 kPa, Liquid	1072.12
353.13 K, 5826.7 kPa, Liquid	1073.17
353.13 K, 5865.4 kPa, Liquid	1074.15
353.13 K, 5902.7 kPa, Liquid	1075.33
353.13 K, 5941.8 kPa, Liquid	1076.43
353.13 K, 5981.5 kPa, Liquid	1077.54
353.13 K, 6019.6 kPa, Liquid	1078.56
353.13 K, 6060.4 kPa, Liquid	1079.62
353.13 K, 6101 kPa, Liquid	1080.65
353.13 K, 6140.3 kPa, Liquid	1081.81
353.13 K, 6177.9 kPa, Liquid	1082.78
353.13 K, 6216.7 kPa, Liquid	1083.8

From the NIST ThermoML archive (doi:10.1021/je900596d)
